{
  "source": "patent US20100029609A1",
  "about": "(priority 2006, published 2010)",
  "data": [
    {"target": "T1, human S1P1 receptors (Homo sapiens, UniProt P21453)", "T1 construct": "expressed in transfected cells; host or cells: HeLa (human cervix carcinoma, ATCC CCL2), HeLa-S1P1/Gα16 cell clone 1", "T1 sequence (P21453 whole entry)": "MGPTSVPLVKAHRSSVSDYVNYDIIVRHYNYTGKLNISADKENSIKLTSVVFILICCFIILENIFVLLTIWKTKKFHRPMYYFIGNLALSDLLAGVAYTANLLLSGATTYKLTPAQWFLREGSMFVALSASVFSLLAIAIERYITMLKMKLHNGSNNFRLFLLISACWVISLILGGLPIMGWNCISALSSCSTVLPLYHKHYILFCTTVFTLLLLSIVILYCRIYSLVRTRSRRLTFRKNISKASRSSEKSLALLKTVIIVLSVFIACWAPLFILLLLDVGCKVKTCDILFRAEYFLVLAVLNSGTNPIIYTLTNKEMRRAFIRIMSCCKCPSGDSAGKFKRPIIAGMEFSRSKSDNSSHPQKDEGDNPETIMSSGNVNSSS", "assay": "Human S1P Receptor Calcium FLIPR Antagonist Assay, HeLa Gα16 S1P1", "type": "cell-based", "conditions": "HeLa-S1P1/Gα16 cells; antagonism of Ca2+ signal of probing agonist GNF-AC-1 at EC80", "excerpt": "Human S1P Receptor Calcium FLIPR Antagonist Assays\nThe assay measures intracellular changes of Ca^2+ mediated by the synthetic probing agonist 3-{[2-(2-Trifluoromethyl-biphenyl-4-yl)-benzo[b]thiophen-5-ylmethyl]-amino}-propionic acid (GNF-AC-1) in the HeLa-S1P1/Gα16 cell clone 1: HeLa (human cervix carcinoma, ATCC CCL2) cells stably expressing N-terminally myc-tagged human S1P1 receptors (GenBank™ accession No. NM_001400; UNIPROT P21453) and promiscuous Gα16 protein (GenBank™ accession number M63904, Swissprot P30679) are cultured at 37° C., 5% CO2, and 95% relative humidity. The cells are plated in 384 well black plates (10,000 cells per well). After 24 hours the cells are loaded with Fluo4-AM (1.6 μM in HBSS and 2.5 mM probenicid) for 1 hour at 37° C. After washing, the cells are transferred to the FLIPR. The test compounds are added at different concentrations (≦30 μM) in HBSS in the presence of 0.1% BSA and changes in fluorescence are recorded (indication of agonism). The probing agonist is added 15 minutes afterwards to the wells at a concentration giving 80% of the maximal activity (EC80). After each addition time points are collected as follows: 20 time points (2 seconds) before the addition of the agonist (Fmin) and 60 time points (1 or 2 seconds) after the addition of the probing agonist. This allows the determination of the maximal fluorescence (Fmax). The ratio (Fmax-Fmin)/Fmin is plotted against the log of the concentration of the test compounds and the IC50 (relative antagonism) is determined with the help of XLfit-4 software. […] A dose response curve of the probing agonist is determined on each plate in parallel. The compounds of the invention are typically active in this assay at a concentration ranging typically from <1 nM to 30 μM, usually from less than 1 nanomolar to 1 micromolar.", "units": {"IC50": "nM"}, "values": [
      {"smiles": "Cc1cc(S(=O)(=O)Nc2cccc(-c3cc(C)c(C(=O)N[C@H](CO)C(=O)O)c(C)c3)c2)c(C)cc1Cl", "note": "[Example 133, (R)-2-{[3′-(4-Chloro-2,5-dimethyl-benzenesulfonylamino)-3,5-dimethyl-biphenyl-4-carbonyl]-amino}-3-hydroxy-propionic acid]", "IC50": 3.5},
      {"smiles": "Cc1cc(S(=O)(=O)Nc2cccc(-c3cc(C)c(C(=O)NC4(C(=O)O)CCC4)c(C)c3)c2)c(C)cc1Cl", "note": "[Example 147, 1-{[3′-(4-Chloro-2,5-dimethyl-benzenesulfonylamino)-3,5-dimethyl-biphenyl-4-carbonyl]-amino}-cyclobutanecarboxylic acid]", "IC50": 3.5},
      {"smiles": "Cc1cc(S(=O)(=O)Nc2cccc(-c3cc(C)c(C(=O)N[C@@H](CO)C(=O)O)c(C)c3)c2)c(C)cc1Cl", "note": "[Example 131, (S)-2-{[3′-(4-Chloro-2,5-dimethyl-benzenesulfonylamino)-3,5-dimethyl-biphenyl-4-carbonyl]-amino}-3-hydroxy-propionic acid]", "IC50": 0.6},
      {"smiles": "Cc1cc(S(=O)(=O)Nc2cccc(-c3cc(C)c(C(=O)N(C)[C@@H](C)C(=O)O)c(C)c3)c2)c(C)cc1Cl", "note": "[Example 139, (S)-2-{[3′-(4-Chloro-2,5-dimethyl-benzenesulfonylamino)-3,5-dimethyl-biphenyl-4-carbonyl]-methyl-amino}-propionic acid]", "IC50": 1.1},
      {"smiles": "COc1cc(-c2cccc(NS(=O)(=O)c3cc(C)c(Cl)cc3C)c2)ccc1C(=O)NCC(=O)O", "note": "[Example 70, {[3′-(4-Chloro-2,5-dimethyl-benzenesulfonylamino)-3-methoxy-biphenyl-4-carbonyl]-amino}-acetic acid]", "IC50": 1},
      {"smiles": "Cc1cc(S(=O)(=O)Nc2cccc(-c3ccc(C(=O)N(C)[C@@H](CO)C(=O)O)cc3)c2)c(C)cc1Cl", "note": "[Example 85, (S)-2-{[3′-(4-Chloro-2,5-dimethyl-benzenesulfonylamino)-biphenyl-4-carbonyl]-methyl-amino}-3-hydroxy-propionic acid]", "IC50": 1.7},
      {"smiles": "CCc1cc(-c2cccc(NS(=O)(=O)c3cc(C)c(Cl)cc3C)c2)ccc1C(=O)N[C@@H](C)C(=O)O", "note": "[Example 154, (S)-2-{[3′-(4-Chloro-2,5-dimethyl-benzenesulfonylamino)-3-ethyl-biphenyl-4-carbonyl]-amino}-propionic acid]", "IC50": 1.7},
      {"smiles": "COc1cc(-c2cccc(NS(=O)(=O)c3cc(C)c(Cl)cc3C)c2)ccc1C(=O)N[C@@H](CO)C(=O)O", "note": "[Example 71, (S)-2-{[3′-(4-Chloro-2,5-dimethyl-benzenesulfonylamino)-3-methoxy-biphenyl-4-carbonyl]-amino}-3-hydroxy-propionic acid]", "IC50": 1},
      {"smiles": "Cc1cc(S(=O)(=O)Nc2cccc(-c3cc(C)c(C(=O)NC4(C(=O)O)CNC4)c(C)c3)c2)c(C)cc1Cl", "note": "[Example 145, 3-{[3′-(4-Chloro-2,5-dimethyl-benzenesulfonylamino)-3,5-dimethyl-biphenyl-4-carbonyl]-amino}-azetidine-3-carboxylic acid]", "IC50": 2},
      {"smiles": "Cc1cc(S(=O)(=O)Nc2cccc(-c3ccc(C(=O)N[C@@H](CO)C(=O)O)cc3)c2)c(C)cc1Cl", "note": "[Example 28]", "IC50": 2.8},
      {"smiles": "Cc1cc(S(=O)(=O)Nc2cccc(-c3cc(C)c(C(=O)N[C@@H](CO)C(N)=O)c(C)c3)c2)c(C)cc1Cl", "note": "[Example 153, 3′-(4-Chloro-2,5-dimethyl-benzenesulfonylamino)-3,5-dimethyl-biphenyl-4-carboxylic acid ((S)-1-carbamoyl-2-hydroxy-ethyl)-amide]", "IC50": 3},
      {"smiles": "Cc1cc(S(=O)(=O)Nc2cccc(-c3ccc(C(=O)NC4(C(=O)O)CN(C)C4)c(C)c3)c2)c(C)cc1Cl", "note": "[Example 55, 3-{[3′-(4-Chloro-2,5-dimethyl-benzenesulfonylamino)-3-methyl-biphenyl-4-carbonyl]-amino}-1-methyl-azetidine-3-carboxylic acid]", "IC50": 5},
      {"smiles": "COC[C@H](NC(=O)c1ccc(-c2cccc(NS(=O)(=O)c3cc(C)c(Cl)cc3C)c2)cc1C)C(=O)O", "note": "[Example 60, (S)-2-{[3′-(4-Chloro-2,5-dimethyl-benzenesulfonylamino)-3-methyl-biphenyl-4-carbonyl]-amino}-3-methoxy-propionic acid]", "IC50": 1.5},
      {"smiles": "Cc1cc(S(=O)(=O)Nc2cccc(-c3cc(C)c(C(=O)N[C@H](CN)C(=O)O)c(C)c3)c2)c(C)cc1Cl", "note": "[Example 143, (R)-3-Amino-2-{[3′-(4-chloro-2,5-dimethyl-benzenesulfonylamino)-3,5-dimethyl-biphenyl-4-carbonyl]-amino}-propionic acid]", "IC50": 5},
      {"smiles": "Cc1cc(S(=O)(=O)Nc2cccc(-c3cc(C)c(C(=O)N[C@H](C)C(=O)O)c(C)c3)c2)c(C)cc1Cl", "note": "[Example 134, (R)-2-{[3′-(4-Chloro-2,5-dimethyl-benzenesulfonylamino)-3,5-dimethyl-biphenyl-4-carbonyl]-amino}-propionic acid]", "IC50": 7},
      {"smiles": "CC[C@H](NC(=O)c1c(C)cc(-c2cccc(NS(=O)(=O)c3cc(C)c(Cl)cc3C)c2)cc1C)C(=O)O", "note": "[Example 135, (S)-2-{[3′-(4-Chloro-2,5-dimethyl-benzenesulfonylamino)-3,5-dimethyl-biphenyl-4-carbonyl]-amino}-butyric acid]", "IC50": 1.7},
      {"smiles": "Cc1cc(S(=O)(=O)Nc2cccc(-c3cc(C)c(C(=O)NC4(C(=O)O)CN(C)C4)c(C)c3)c2)c(C)cc1Cl", "note": "[Example 150, 3-{[3′-(4-Chloro-2,5-dimethyl-benzenesulfonylamino)-3,5-dimethyl-biphenyl-4-carbonyl]-amino}-1-methyl-azetidine-3-carboxylic acid]", "IC50": 1.6},
      {"smiles": "Cc1cc(S(=O)(=O)Nc2cccc(-c3cc(C)c(C(=O)N(C)[C@@H](CO)C(=O)O)c(C)c3)c2)c(C)cc1Cl", "note": "[Example 138, (S)-2-{[3′-(4-Chloro-2,5-dimethyl-benzenesulfonylamino)-3,5-dimethyl-biphenyl-4-carbonyl]-methyl-amino}-3-hydroxy-propionic acid]", "IC50": 1.1},
      {"smiles": "COC[C@H](NC(=O)c1c(C)cc(-c2cccc(NS(=O)(=O)c3cc(C)c(Cl)cc3C)c2)cc1C)C(=O)O", "note": "[Example 136, (S)-2-{[3′-(4-Chloro-2,5-dimethyl-benzenesulfonylamino)-3,5-dimethyl-biphenyl-4-carbonyl]-amino}-3-methoxy-propionic acid]", "IC50": 1.7},
      {"smiles": "Cc1cc(S(=O)(=O)Nc2cccc(-c3ccc(CN[C@H](CO)C(=O)O)cc3)c2)c(C)cc1Cl", "note": "[Example 157, (R)-2-{[3′-(4-Chloro-2,5-dimethyl-benzenesulfonylamino)-biphenyl-4-ylmethyl]-amino}-3-hydroxy-propionic acid]", "IC50": 4.7},
      {"smiles": "Cc1cc(S(=O)(=O)Nc2cccc(-c3ccc(C(=O)N[C@H](C(=O)O)C(C)(C)O)c(C)c3)c2)c(C)cc1Cl", "note": "[Example 61, (S)-2-{[3′-(4-Chloro-2,5-dimethyl-benzenesulfonylamino)-3-methyl-biphenyl-4-carbonyl]-amino}-3-hydroxy-3-methyl-butyric acid]", "IC50": 0.4},
      {"smiles": "Cc1cc(S(=O)(=O)Nc2cccc(-c3cnc(C(=O)N[C@@H](CO)C(=O)O)cn3)c2)c(C)cc1Cl", "note": "[Example 79, (S)-2-({5-[3-(4-Chloro-2,5-dimethyl-benzenesulfonylamino)-phenyl]-pyrazine-2-carbonyl}-amino)-3-hydroxy-propionic acid]", "IC50": 5},
      {"smiles": "Cc1cc(S(=O)(=O)Nc2cccc(-c3ccc(C(=O)N[C@@H](C)C(=O)O)cc3)c2)c(C)cc1Cl", "note": "[Example 25, (S)-2-{[3′-(4-Chloro-2,5-dimethyl-benzenesulfonylamino)-biphenyl-4-carbonyl]-amino}-propionic acid]", "IC50": 8.8},
      {"smiles": "Cc1cc(S(=O)(=O)Nc2cccc(-c3ccc(C(=O)N[C@H](CO)C(=O)O)c(C)c3)c2)c(C)cc1Cl", "note": "[Example 46, (R)-2-{[3′-(4-Chloro-2,5-dimethyl-benzenesulfonylamino)-3-methyl-biphenyl-4-carbonyl]-amino}-3-hydroxy-propionic acid]", "IC50": 0.8}
    ]}
  ]
}
